Our source for the IC50, AUC and Cmax values is ChEMBL document CHEMBL1154226, “Synthesis and evaluation of inhibitors of cytochrome P450 3A (CYP3A) for pharmacokinetic enhancement of drugs” (Bioorg Med Chem Lett, 2009).

The subject of series [1] is Liver microsomes. In words: Intrinsic clearance in human liver microsomes. It counts as ADME, Microsome. For orientation: Liver microsomes are vesicles of endoplasmic reticulum, rich in cytochrome P450 enzymes.
The species named for series [2] is Canis familiaris. Particulars: dog, in vivo, po, 5 mg/kg.
A short description of series [3]: in vivo. Particulars: Beagle, dog, po, 5 mg/kg.
Series [4] addresses Cytochrome P450 3A4 (Homo sapiens, UniProt P08684). In words: Inhibition of human recombinant CYP3A4-mediated oxidation of 7-benzyloxyquinoline.

Chain of Cytochrome P450 3A4 (P08684 whole entry): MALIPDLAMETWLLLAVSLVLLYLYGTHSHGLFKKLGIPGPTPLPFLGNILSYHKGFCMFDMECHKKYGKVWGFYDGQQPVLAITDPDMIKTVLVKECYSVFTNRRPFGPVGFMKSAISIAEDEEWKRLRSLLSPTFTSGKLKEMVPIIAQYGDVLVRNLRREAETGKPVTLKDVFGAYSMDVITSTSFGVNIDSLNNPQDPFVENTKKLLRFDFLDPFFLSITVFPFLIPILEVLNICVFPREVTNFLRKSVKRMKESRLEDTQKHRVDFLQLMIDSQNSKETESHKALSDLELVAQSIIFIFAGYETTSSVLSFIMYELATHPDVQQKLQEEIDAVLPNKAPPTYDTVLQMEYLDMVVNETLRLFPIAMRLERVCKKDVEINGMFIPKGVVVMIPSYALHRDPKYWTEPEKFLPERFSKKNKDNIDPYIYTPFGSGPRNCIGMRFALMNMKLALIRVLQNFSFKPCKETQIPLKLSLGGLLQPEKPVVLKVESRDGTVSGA

As usually defined, the IC50 is the midpoint of a concentration-inhibition curve. What is called Cmax is the peak of the concentration-time curve. In series [1], `O=C(NC(Cc1ccccc1)CN(CC(Cc1ccccc1)NC(=O)OCc1cncs1)CC(Cc1ccccc1)NC(=O)OCc1cncs1)OCc1cncs1` (stereo not given) showed a half-maximal inhibitory concentration (IC50) of 54 nM. Besides, in series [2], the AUC was 0.06 µg/mL. Further, in series [3], the Cmax came to 30 ng/mL.

For the compound `CCN(C[C@H](Cc1ccccc1)NC(=O)OCc1cnc[nH]1)C[C@H](Cc1ccccc1)NC(=O)OCc1cnc[nH]1`, the IC50 in series [4] is 348 nM.

Turning to `CCN(C[C@H](CC(C)C)NC(=O)OCc1cncs1)C[C@H](CC(C)C)NC(=O)OCc1cncs1`, the IC50 in series [4] is 136 nM.

With `CCN(C[C@H](Cc1ccccc1)NC(=O)OCc1cccs1)C[C@H](Cc1ccccc1)NC(=O)OCc1cccs1`, the IC50 in series [4] came to 741 nM.

`CCN(C[C@H](Cc1ccccc1)NC(=O)OCc1cncs1)C[C@H](Cc1ccccc1)NC(=O)OCc1cncs1` came in with an AUC in series [2] of 1.38 µg/mL. Further, in series [3], the peak level (Cmax) was 610 ng/mL.

As to `CCN(CC(CC(=O)OC)NC(=O)OCc1cncs1)CC(CC(=O)OC)NC(=O)OCc1cncs1` (stereo not given), the IC50 in series [4] was determined as 88 nM.

As for `CCN(CC(CC1CCCCC1)NC(=O)OCc1cncs1)CC(CC1CCCCC1)NC(=O)OCc1cncs1` (stereo not given), in series [4], the IC50 worked out at 66 nM.

In the case of `CCN(C[C@H](Cc1ccccc1)NC(=O)OCc1cnco1)C[C@H](Cc1ccccc1)NC(=O)OCc1cnco1`, the concentration for half-maximal inhibition (IC50) in series [4] was 274 nM.

Regarding `CCN(CCNC(=O)OCc1cncs1)CCNC(=O)OCc1cncs1`, the IC50 in series [4] was > 3000 nM.

Take `CC(C)c1nc(CN(C)C(=O)N[C@H](C(=O)N[C@@H](Cc2ccccc2)C[C@H](O)[C@H](Cc2ccccc2)NC(=O)OCc2cncs2)C(C)C)cs1` [RITONAVIR]: in series [1], the IC50 came out at 40 nM. In series [2], this compound displayed an AUC of 2.19 µg/mL. The compound also showed a peak concentration (Cmax) in series [3] of 1320 ng/mL.
